Assays:
Type in all cases: functional, cell-based
[1] = molecular target: ATP-dependent translocase ABCB1 (Homo sapiens, UniProt P08183); assay: TP_TRANSPORTER: transepithelial transport (basal to apical) in MDR1-expressing LLC-PK1 cells; conditions: pig
[2] = molecular target: ATP-dependent translocase ABCB1 (Mus musculus, UniProt P06795); assay: TP_TRANSPORTER: transepithelial transport (basal to apical) in mdr1b-expressing LLC-PK1 cell
[3] = molecular target: ATP-dependent translocase ABCB1 (Mus musculus, UniProt P21447); assay: TP_TRANSPORTER: transepithelial transport (basal to apical) in mdr1a-expressing LLC-PK1 cell; conditions: pig

Measured: Activity

ATP-dependent translocase ABCB1 (Homo sapiens, UniProt P08183), sequence (P08183 whole entry): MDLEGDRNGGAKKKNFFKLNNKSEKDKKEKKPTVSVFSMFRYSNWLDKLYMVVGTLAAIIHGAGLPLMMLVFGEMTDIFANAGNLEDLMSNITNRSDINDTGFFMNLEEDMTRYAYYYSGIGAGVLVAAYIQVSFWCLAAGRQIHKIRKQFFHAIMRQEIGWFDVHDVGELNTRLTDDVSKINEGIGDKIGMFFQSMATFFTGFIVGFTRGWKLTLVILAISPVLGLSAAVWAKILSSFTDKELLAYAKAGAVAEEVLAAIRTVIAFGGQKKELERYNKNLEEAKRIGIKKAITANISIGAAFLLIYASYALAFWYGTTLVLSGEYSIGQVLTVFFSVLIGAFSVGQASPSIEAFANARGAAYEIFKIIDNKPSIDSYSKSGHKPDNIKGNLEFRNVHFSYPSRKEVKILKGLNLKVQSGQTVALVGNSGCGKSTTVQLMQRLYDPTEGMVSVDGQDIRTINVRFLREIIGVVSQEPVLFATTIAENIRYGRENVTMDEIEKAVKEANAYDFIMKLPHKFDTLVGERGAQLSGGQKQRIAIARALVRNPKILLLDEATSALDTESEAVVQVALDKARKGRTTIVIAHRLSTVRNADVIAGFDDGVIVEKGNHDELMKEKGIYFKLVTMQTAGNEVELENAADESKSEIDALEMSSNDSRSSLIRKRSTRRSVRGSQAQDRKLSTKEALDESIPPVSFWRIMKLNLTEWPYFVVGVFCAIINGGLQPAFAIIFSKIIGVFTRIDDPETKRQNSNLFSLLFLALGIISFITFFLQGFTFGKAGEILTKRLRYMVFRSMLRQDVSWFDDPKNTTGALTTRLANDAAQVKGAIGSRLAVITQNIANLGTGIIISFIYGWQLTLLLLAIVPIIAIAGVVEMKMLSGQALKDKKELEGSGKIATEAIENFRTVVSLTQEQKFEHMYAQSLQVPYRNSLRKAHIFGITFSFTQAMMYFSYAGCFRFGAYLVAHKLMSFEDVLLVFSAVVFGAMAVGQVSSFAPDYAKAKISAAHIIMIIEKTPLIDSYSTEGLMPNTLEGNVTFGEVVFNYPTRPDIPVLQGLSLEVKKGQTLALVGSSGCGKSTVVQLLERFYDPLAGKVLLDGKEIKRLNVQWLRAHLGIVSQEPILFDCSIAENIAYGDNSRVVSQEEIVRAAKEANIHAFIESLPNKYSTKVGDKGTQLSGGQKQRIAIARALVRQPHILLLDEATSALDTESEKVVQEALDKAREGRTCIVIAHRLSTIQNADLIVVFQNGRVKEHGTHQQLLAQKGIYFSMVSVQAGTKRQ
ATP-dependent translocase ABCB1 (Mus musculus, UniProt P06795), sequence (P06795 whole entry): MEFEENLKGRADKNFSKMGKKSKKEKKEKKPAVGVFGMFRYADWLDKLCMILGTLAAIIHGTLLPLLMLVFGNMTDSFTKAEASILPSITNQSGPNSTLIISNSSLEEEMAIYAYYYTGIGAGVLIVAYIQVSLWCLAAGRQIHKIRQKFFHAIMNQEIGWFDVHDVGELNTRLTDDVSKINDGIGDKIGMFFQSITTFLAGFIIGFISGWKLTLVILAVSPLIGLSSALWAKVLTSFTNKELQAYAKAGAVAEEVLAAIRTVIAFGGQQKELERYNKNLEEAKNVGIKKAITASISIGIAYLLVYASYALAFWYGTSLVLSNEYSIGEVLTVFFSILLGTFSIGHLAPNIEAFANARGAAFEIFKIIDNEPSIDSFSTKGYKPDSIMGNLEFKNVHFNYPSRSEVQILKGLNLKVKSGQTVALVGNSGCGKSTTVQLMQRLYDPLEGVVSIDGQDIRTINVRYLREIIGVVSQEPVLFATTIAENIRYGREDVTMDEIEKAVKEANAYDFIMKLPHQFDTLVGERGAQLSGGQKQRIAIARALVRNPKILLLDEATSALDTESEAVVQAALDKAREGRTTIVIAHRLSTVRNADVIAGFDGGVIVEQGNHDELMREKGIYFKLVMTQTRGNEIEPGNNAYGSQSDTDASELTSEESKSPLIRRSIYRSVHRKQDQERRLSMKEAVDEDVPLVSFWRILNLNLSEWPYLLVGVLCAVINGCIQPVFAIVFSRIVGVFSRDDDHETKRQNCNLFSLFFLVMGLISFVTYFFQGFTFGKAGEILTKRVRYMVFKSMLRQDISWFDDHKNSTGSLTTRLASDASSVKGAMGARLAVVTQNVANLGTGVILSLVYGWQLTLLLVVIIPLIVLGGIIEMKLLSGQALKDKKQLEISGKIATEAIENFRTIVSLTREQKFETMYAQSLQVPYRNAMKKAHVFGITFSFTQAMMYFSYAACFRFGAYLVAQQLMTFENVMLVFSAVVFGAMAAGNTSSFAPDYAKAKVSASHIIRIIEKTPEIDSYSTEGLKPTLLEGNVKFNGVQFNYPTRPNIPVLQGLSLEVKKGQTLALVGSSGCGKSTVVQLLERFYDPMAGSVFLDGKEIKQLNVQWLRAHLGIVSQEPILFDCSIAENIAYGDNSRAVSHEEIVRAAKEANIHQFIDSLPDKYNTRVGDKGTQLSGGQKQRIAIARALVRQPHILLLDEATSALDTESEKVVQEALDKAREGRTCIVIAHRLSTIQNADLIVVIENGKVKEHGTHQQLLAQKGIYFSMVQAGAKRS
ATP-dependent translocase ABCB1 (Mus musculus, UniProt P21447), sequence (P21447 whole entry): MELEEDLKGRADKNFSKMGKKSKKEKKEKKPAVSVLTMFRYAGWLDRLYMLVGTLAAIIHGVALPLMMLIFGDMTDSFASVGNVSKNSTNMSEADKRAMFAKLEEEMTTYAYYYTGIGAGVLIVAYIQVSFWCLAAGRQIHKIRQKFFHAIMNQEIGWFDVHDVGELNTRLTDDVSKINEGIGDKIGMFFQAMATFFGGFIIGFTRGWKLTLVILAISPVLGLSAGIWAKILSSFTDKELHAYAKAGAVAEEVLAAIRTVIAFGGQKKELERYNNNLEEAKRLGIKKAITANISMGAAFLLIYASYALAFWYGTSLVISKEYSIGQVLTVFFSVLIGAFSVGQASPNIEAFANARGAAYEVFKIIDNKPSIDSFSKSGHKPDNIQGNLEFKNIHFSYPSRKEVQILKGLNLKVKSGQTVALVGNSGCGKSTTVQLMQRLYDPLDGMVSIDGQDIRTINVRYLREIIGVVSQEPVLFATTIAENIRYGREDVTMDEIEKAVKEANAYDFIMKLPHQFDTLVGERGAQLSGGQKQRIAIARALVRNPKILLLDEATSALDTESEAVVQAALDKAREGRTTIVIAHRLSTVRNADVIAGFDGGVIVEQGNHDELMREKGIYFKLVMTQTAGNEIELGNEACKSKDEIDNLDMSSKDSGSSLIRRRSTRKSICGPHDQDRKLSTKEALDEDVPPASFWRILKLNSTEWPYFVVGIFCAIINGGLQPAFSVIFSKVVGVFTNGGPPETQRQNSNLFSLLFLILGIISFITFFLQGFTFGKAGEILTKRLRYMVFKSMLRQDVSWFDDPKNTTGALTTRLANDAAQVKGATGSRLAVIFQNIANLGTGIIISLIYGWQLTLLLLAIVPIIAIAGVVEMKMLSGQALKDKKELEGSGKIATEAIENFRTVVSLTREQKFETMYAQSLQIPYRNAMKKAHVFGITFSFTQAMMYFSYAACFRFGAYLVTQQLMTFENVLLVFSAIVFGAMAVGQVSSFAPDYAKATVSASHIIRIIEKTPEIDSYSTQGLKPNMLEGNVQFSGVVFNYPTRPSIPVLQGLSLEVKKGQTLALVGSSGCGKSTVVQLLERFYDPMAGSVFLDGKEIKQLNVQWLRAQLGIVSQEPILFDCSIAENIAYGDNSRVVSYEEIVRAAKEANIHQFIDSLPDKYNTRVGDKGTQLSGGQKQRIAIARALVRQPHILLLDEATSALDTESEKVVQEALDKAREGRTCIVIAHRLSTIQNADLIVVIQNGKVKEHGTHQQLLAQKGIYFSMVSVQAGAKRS

CC(C)(C)NC(=O)[C@@H]1C[C@@H]2CCCC[C@@H]2CN1C[C@@H](O)[C@H](Cc1ccccc1)NC(=O)[C@H](CC(N)=O)NC(=O)c1ccc2ccccc2n1
substrate [+]: [1] | [2] | [3]

Source: ChEMBL document CHEMBL2074426 (Mol Pharmacol, 2001)
